In ChEMBL document CHEMBL2203254, “Anion inhibition studies of the fastest carbonic anhydrase (CA) known, the extremo-CA from the bacterium Sulfurihydrogenibium azorense” (Bioorg Med Chem Lett, 2012):
Where a name gives a salt, the structure may show the parent alone.

Target: Carbonic anhydrase 2 (Homo sapiens, UniProt P00918)
Experiment: Inhibition of human cytosolic carbonic anhydrase 2 preincubated for 15 mins by stopped flow CO2 hydration assay
Work on O=S(=O)(O)ONOS(=O)(=O)O [SODIUM IMINODISULFATE] yielded a Ki of 760 µM.

Target: Carbonic anhydrase 1 (Homo sapiens, UniProt P00915)
Sequence (P00915 whole entry): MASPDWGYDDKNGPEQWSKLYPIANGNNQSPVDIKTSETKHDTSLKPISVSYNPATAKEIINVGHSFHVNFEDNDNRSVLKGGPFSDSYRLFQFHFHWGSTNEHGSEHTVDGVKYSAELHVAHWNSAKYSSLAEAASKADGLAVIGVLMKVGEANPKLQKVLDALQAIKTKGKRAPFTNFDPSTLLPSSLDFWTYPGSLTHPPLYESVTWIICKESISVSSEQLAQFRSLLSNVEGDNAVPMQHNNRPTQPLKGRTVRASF
Experiment: Inhibition of human cytosolic carbonic anhydrase 1 preincubated for 15 mins by stopped flow CO2 hydration assay
With O=S(=O)(O)ONOS(=O)(=O)O [SODIUM IMINODISULFATE] the Ki was 310 µM. In the case of N=C=[Se] [SODIUM ISOSELENOCYANATE], the Ki is reported as 85 µM.

Target: not listed separately
Experiment: Inhibition of Sulfurihydrogenibium azorense alpha-carbonic anhydrase preincubated for 15 mins by stopped flow CO2 hydration assay
With CC(=O)Nc1nnc(S(N)(=O)=O)s1 [ACETAZOLAMIDE] the Ki was 0.0009 µM. For CCN(CC)C(=S)S [DITIOCARB SODIUM], the Ki was 3 µM. Work on O=[As](O)(O)c1ccccc1 [PHENYLARSONIC ACID SODIUM SALT] yielded a Ki of 8 µM. OB(O)c1ccccc1 [PHENYLBORONIC ACID SODIUM SALT] showed a Ki of 7 µM. In the case of [N-]=[N+]=[N-] [SODIUM AZIDE], the Ki is reported as 340 µM. For O=C([O-])O.[Na+] [SODIUM BICARBONATE], the Ki was 15700 µM. O=S([O-])O.[Na+] [SODIUM BISULFITE] showed a Ki of 950 µM. [Br-].[Na+] [SODIUM BROMIDE] showed a Ki of 940 µM. In the case of O=C([O-])[O-].[Na+].[Na+] [SODIUM CARBONATE], the Ki is reported as 7600 µM. S=C(S)S [SODIUM CARBONOTRITHIOATE] showed a Ki of 39 µM. For [Cl-].[Na+] [SODIUM CHLORIDE], the Ki was 850 µM. Molecule [F-].[Na+] [SODIUM FLUORIDE] has a Ki of 980 µM. Work on S [SODIUM HYDROSULFIDE] yielded a Ki of 380 µM. In the case of O=S(=O)(O)ONOS(=O)(=O)O [SODIUM IMINODISULFATE], the Ki is reported as 520 µM. In the case of [I-].[Na+] [SODIUM IODIDE], the Ki is reported as 870 µM. Work on N=C=[Se] [SODIUM ISOSELENOCYANATE] yielded a Ki of 490 µM. Molecule N=C=S [SODIUM ISOTHIOCYANATE] has a Ki of 580 µM. Molecule O=[N+]([O-])[O-].[Na+] [SODIUM NITRATE] has a Ki of 760 µM. O=NO [SODIUM NITRITE] showed a Ki of 580 µM. [O-][Cl+3]([O-])([O-])O [SODIUM PERCHLORATE] gave a Ki of over 200000 µM. O=S(=O)(O)OOS(=O)(=O)O [SODIUM PERSULFATE] gave a Ki of 32900 µM. O=P(O)(O)OP(=O)(O)O [SODIUM PYROPHOSPHATE] gave a Ki of 660 µM. Molecule O=[Se](=O)(O)O [SODIUM SELENATE] has a Ki of 510 µM. For NS(=O)(=O)O [SODIUM SULFAMATE], the Ki was 5 µM. Molecule O=S(=O)([O-])[O-].[Na+].[Na+] [SODIUM SULFATE ANHYDROUS] has a Ki of 10000 µM. In the case of O=[Te](=O)(O)O [SODIUM TELLURATE], the Ki is reported as 410 µM. In the case of O=BOB(O)OB(O)OB=O [SODIUM TETRABORATE], the Ki is reported as 490 µM. F[B-](F)(F)F.[Na+] [SODIUM TETRAFLUOROBORATE] gave a Ki of over 200000 µM. Molecule NS(N)(=O)=O [SULFURIC DIAMIDE SODIUM SALT] has a Ki of 4 µM.
